Earlier results on four compounds are cited in PubChem BioAssay AID1259409 (Chemical Carcinogenesis Research Information System (CCRIS), 2018).

Molecules are shown by their SMILES.

The subject of the series is rodent chemically induced tumor inhibition, incidence and multiplicity. The series is described as follows: CCRIS tumor inhibitor studies.

As to `CC(C)=CCCC(C)CCO` (stereo unspecified), the “tumour outcome (control, treated, inhibition, significance)” value is 50%, 26%, 48%, not significant (Carcinogen: AZOXYMETHANE, 25843-45-2, Dose [Inhibitor]: 0, 5 MG/G IN DIET FOR 22 WK BEGINNING 3 D POST LAST CARCINOGEN DOSE (STUDY DURATION: 25 WK), Route [Inhibitor]: ORAL, Species: RAT, Strain/Sex: F344/MALE, Target Tissue: Type of Lesion: DUODENUM: ADENOCARCINOMA, Dose [Carcinogen]: 15 MG/KG BW 2/WK FOR 3 WK, Promoter: NONE USED) and 82%, 69%, 16%, not significant (Carcinogen: AZOXYMETHANE, 25843-45-2, Dose [Inhibitor]: 0, 5 MG/G IN DIET FOR 22 WK BEGINNING 3 D POST LAST CARCINOGEN DOSE (STUDY DURATION: 25 WK), Route [Inhibitor]: ORAL, Species: RAT, Strain/Sex: F344/MALE, Target Tissue: Type of Lesion: LARGE BOWEL: ADENOMATOUS POLYP, Dose [Carcinogen]: 15 MG/KG BW 2/WK FOR 3 WK, Promoter: NONE USED). As for `CSCC[C@H](NC(C)=O)C(=O)O`, the “tumour outcome (control, treated, inhibition, significance)” value (Carcinogen: 7,12-DIMETHYLBENZ[A]ANTHRACENE, 57-97-6, Dose [Inhibitor]: 0.06 MMOL/G DIET DAILY FOR 17 WK STARTING 1 WK PRIOR TO CARCINOGEN TREATMENT AND CONTINUING THROUGH THE END OF THE STUDY, Route [Inhibitor]: ORAL, Species: RAT, Strain/Sex: SPRAGUE-DAWLEY/FEMALE, Target Tissue: Type of Lesion: MAMMARY GLAND: TUMOR, Dose [Carcinogen]: 12 MG IN 1 ML OLIVE OIL ONCE, Promoter: NONE USED) was 59%, 69%, -17%, not calculated. Turning to `C=CC[C@@H]1/C=C(\C)C[C@H](C)C[C@H](OC)[C@H]2O[C@@](O)(C(=O)C(=O)N3CCCC[C@H]3C(=O)O[C@H](/C(C)=C/[C@@H]3CC[C@@H](O)[C@H](OC)C3)[C@H](C)[C@@H](O)CC1=O)[C@H](C)C[C@@H]2OC`, the “tumour outcome (control, treated, inhibition, significance)” value (Carcinogen: 7,12-DIMETHYLBENZ[A]ANTHRACENE : 57-97-6, Dose [Inhibitor]: 0, 1 UMOL APPLIED 5 MIN PRIOR TO EACH PROMOTER DOSE FOR 22 WK BEGINNING 10 D POST CARCINOGEN DOSE (STUDY DURATION: 23 WK, Route [Inhibitor]: DERMAL, Species: MOUSE, Strain/Sex: CD-1/FEMALE, Target Tissue: Type of Lesion: SKIN: PAPILLOMA, Dose [Carcinogen]: 200 NMOL ONCE, Promoter: 12-O-TETRADECANOYLPHORBOL-13-ACETATE, 16561-29-8) is on record as 100%, 15%, 85%, not calculated and the “tumour outcome (control, treated, inhibition, significance)” value (Carcinogen: 7,12-DIMETHYLBENZ[A]ANTHRACENE, 57-97-6, Dose [Inhibitor]: 0, 0.1 UMOL APPLIED 15 MIN PRIOR TO EACH PROMOTER DOSE FOR 22 WK BEGINNING 10 D POST CARCINOGEN DOSE (STUDY DURATION: 23, Route [Inhibitor]: DERMAL, Species: (20,20)/(20,20), Strain/Sex: CD-1/FEMALE, Target Tissue: Type of Lesion: SKIN: PAPILLOMA, Dose [Carcinogen]: 200 NMOL ONCE, Promoter: 12-O-TETRADECANOYLPHORBOL-13-ACETATE, 16561-29-8) was 100%, 38%, 62%, not calculated. Take `O=C(CCCN1CCC(O)(c2ccc(Cl)cc2)CC1)c1ccc(F)cc1`: the “tumour outcome (control, treated, inhibition, significance)” value (Carcinogen: AZOXYMETHANE, 25843-45-2, Dose [Inhibitor]: 0, 2 MG/KG BW SUSPENDED IN 1 ML/MG OLIVE OIL 1/2 D FOR STUDY DURATION (STUDY DURATION: 30 WK), Route [Inhibitor]: SUBCUTANEOUS, Species: RAT, Strain/Sex: WISTAR/MALE, Target Tissue: Type of Lesion: COLON: TUMOR, Dose [Carcinogen]: 7.4 MG/KG IN 0.9% SALINE 1/WK FOR 10 WK) was 9/17 (53%), 3/19 (16%), 70%, p<0.05.
